According to patent US10780074B2, “Compounds and uses thereof” (Sunovion Pharmaceuticals Inc., priority 2017, dated 2020):
Where a name gives a salt, the structure may show the parent alone.

Key:
MES-induced seizures = assay: Mouse Maximum Electroshock Assay (MES); format: in vivo; conditions: male CF-1 mice, fewer than 4 animals tested, given as N/F
Source text: Mouse Maximum Electroshock Assay (MES)
Mouse Maximum Electroshock Assay (MES) is a model for generalized tonic-clonic seizures and provides an indication of a compound's ability to prevent seizure spread when all neuronal circuits in the brain are maximally active. These seizures are highly reproducible and are electrophysiologically consistent with human seizures. For all MES tests, 60 Hz of alternating current (50 mA in mice and 150 mA in rats) was delivered for 0.2 sec by corneal electrodes which had been primed with an electrolyte solution containing an anesthetic agent (0.5% tetracaine HCl). An animal was considered “protected” from MES-induced seizures upon abolition of the hindlimb tonic extensor component of the seizure. Initial screen for anticonvulsant activity in the MES was performed with N=4 male CF-1 mice/dose/time point. The default doses and time-points were 3 and 30 mg/kg at 0.25 and 0.5 hr following administration. Quantification of the ED50 was conducted at the time of peak effect (TPE). To determine the TPE, groups of N=4 mice were treated with the investigational compound at 0.25, 0.5, 1.0, 2.0 and 4.0 hrs prior to MES testing, or based on time-points from prior studies. […] Quantitation of the ED50 was conducted the same as described for mice above.

[1] = system: behaviors of compound-treated mice; assay: Neuropharmacological Assay (SmartCube); format: in vivo; conditions: for minimal effective dose: Mus musculus, ip, 0.25 h, dose having 50% or more total activity in SmartCube, i.p., read-out: MED (minimal effective dose); for AD: ADHD (probability that activity matches class) / AG: analgesic (probability that activity matches class) / AX: anxiolytic (probability that activity matches class) / CE: cognitive enhancer (probability that activity matches class) / DP: anti-depressant (probability that activity matches class) / MS: mood stabilizer (probability that activity matches class) / PS: anti-psychotic (probability that activity matches class) / SD: sedative hypnotic (probability that activity matches class) / UN: uncharacterized CNS activity (probability that activity matches class): i.p. 15 min before behavioral test, most efficacious dose(s) of 3 doses
In short: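 Mice dosed i.p. 15 min before testing, with compound in N-methyl-2-pyrrolidone/PEG/propylene glycol, were video-recorded and algorithmically compared with reference-drug behavioral signatures. This gave class-match probabilities (antidepressant, anxiolytic, etc.) at the most efficacious of 3 doses. MED was defined as the dose with ≥50% total activity, usually tested across 0.3–30 mpk.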

| SMILES | Seizure protection at 30 mg/kg (animals protected/animals tested) (MES-induced seizures) | minimal effective dose [1] [mg/kg] | AD: ADHD (probability that activity matches class) [1] | AG: analgesic (probability that activity matches class) [1] | AX: anxiolytic (probability that activity matches class) [1] | CE: cognitive enhancer (probability that activity matches class) [1] | DP: anti-depressant (probability that activity matches class) [1] | MS: mood stabilizer (probability that activity matches class) [1] | PS: anti-psychotic (probability that activity matches class) [1] | SD: sedative hypnotic (probability that activity matches class) [1] | UN: uncharacterized CNS activity (probability that activity matches class) [1] |
| --- | --- | --- | --- | --- | --- | --- | --- | --- | --- | --- | --- |
| CNC[C@@H]1OCCc2c(-c3cnco3)cccc21 (single isomer, unassigned) [Compound 96, hydrochloride salt] | 2/2 animals tested | ≤ 3 | ++ (5% ≤ ++ <25%) | + (LOQ ≤ + <5%) | +++ (25% ≤ +++ <50%) | + (LOQ ≤ + <5%) | ++++ (50% ≤ ++++) | + (LOQ ≤ + <5%) | + (LOQ ≤ + <5%) | ++++ (50% ≤ ++++) | + (LOQ ≤ + <5%) |
| CNC[C@H]1OCCc2c(-c3cnccn3)cccc21 (single isomer, unassigned) [Compound 81] | 3/3 animals tested | ≤ 3 | ++ (5% ≤ ++ <25%) | + (LOQ ≤ + <5%) | ++ (5% ≤ ++ <25%) | + (LOQ ≤ + <5%) | ++++ (50% ≤ ++++) | + (LOQ ≤ + <5%) | + (LOQ ≤ + <5%) | + (LOQ ≤ + <5%) | +++ (25% ≤ +++ <50%) |
| CNC[C@@H]1OCCc2c(-c3cn[nH]c3)cccc21 [Compound 118, (R)-1-(5-(1H-pyrazol-4-yl)isochroman-1-yl)-N-methylmethanamine hydrochloride salt] | – | 10 to 30 | + (LOQ ≤ + <5%) | ++ (5% ≤ ++ <25%) | ++ (5% ≤ ++ <25%) | + (LOQ ≤ + <5%) | ++ (5% ≤ ++ <25%) | + (LOQ ≤ + <5%) | + (LOQ ≤ + <5%) | +++ (25% ≤ +++ <50%) | ++ (5% ≤ ++ <25%) |
| NC[C@@H]1OCCc2ccc(-c3cccnc3)cc21 (single isomer, unassigned) [Compound 11, hydrochloride] | – | 10 to 30 | + (LOQ ≤ + <5%) | ++ (5% ≤ ++ <25%) | + (LOQ ≤ + <5%) | + (LOQ ≤ + <5%) | ++++ (50% ≤ ++++) | + (LOQ ≤ + <5%) | + (LOQ ≤ + <5%) | + (LOQ ≤ + <5%) | + (LOQ ≤ + <5%) |
| Cc1cc(-c2cccc3c2CCO[C@H]3CN)cc(C)n1 [Compound 126, dihydrochloride] | – | 10 to 30 | + (LOQ ≤ + <5%) | + (LOQ ≤ + <5%) | + (LOQ ≤ + <5%) | + (LOQ ≤ + <5%) | + (LOQ ≤ + <5%) | + (LOQ ≤ + <5%) | + (LOQ ≤ + <5%) | + (LOQ ≤ + <5%) | + (LOQ ≤ + <5%) |
| NC[C@@H]1OCCCc2c(-c3ccncc3)cccc21 (single isomer, unassigned) [Compound 150] | – | 10 to 30 | + (LOQ ≤ + <5%) | + (LOQ ≤ + <5%) | ++ (5% ≤ ++ <25%) | + (LOQ ≤ + <5%) | ++ (5% ≤ ++ <25%) | + (LOQ ≤ + <5%) | + (LOQ ≤ + <5%) | + (LOQ ≤ + <5%) | + (LOQ ≤ + <5%) |
| NC[C@H]1OCc2c(-c3cccnc3)cccc21 [Compound 36, (S)-(4-(Pyridin-3-yl)-1,3-dihydroisobenzofuran-1-yl)methanamine hydrochloride] | – | ≤ 3 | ++ (5% ≤ ++ <25%) | + (LOQ ≤ + <5%) | + (LOQ ≤ + <5%) | ++ (5% ≤ ++ <25%) | ++++ (50% ≤ ++++) | + (LOQ ≤ + <5%) | + (LOQ ≤ + <5%) | + (LOQ ≤ + <5%) | + (LOQ ≤ + <5%) |
| CNC[C@H]1OCCc2c(-c3cncs3)cccc21 (single isomer, unassigned) [Compound 69, hydrochloride salt] | – | ≤ 3 | + (LOQ ≤ + <5%) | + (LOQ ≤ + <5%) | ++ (5% ≤ ++ <25%) | + (LOQ ≤ + <5%) | ++++ (50% ≤ ++++) | + (LOQ ≤ + <5%) | + (LOQ ≤ + <5%) | ++ (5% ≤ ++ <25%) | + (LOQ ≤ + <5%) |
| NC[C@H]1OCc2c(-c3ccccn3)cccc21 (single isomer, unassigned) [Compound 42] | – | 10 to 30 | + (LOQ ≤ + <5%) | +++ (25% ≤ +++ <50%) | ++ (5% ≤ ++ <25%) | ++ (5% ≤ ++ <25%) | ++ (5% ≤ ++ <25%) | + (LOQ ≤ + <5%) | + (LOQ ≤ + <5%) | + (LOQ ≤ + <5%) | ++ (5% ≤ ++ <25%) |
| CNC[C@H]1OCCc2c(-c3cncnc3)cccc21 (single isomer, unassigned) [Compound 30, hydrochloride salt] | – | 3 to 10 | ++ (5% ≤ ++ <25%) | ++ (5% ≤ ++ <25%) | ++ (5% ≤ ++ <25%) | ++ (5% ≤ ++ <25%) | ++++ (50% ≤ ++++) | + (LOQ ≤ + <5%) | + (LOQ ≤ + <5%) | + (LOQ ≤ + <5%) | + (LOQ ≤ + <5%) |
| NC[C@@H]1OCCc2c(-c3cn[nH]c3)cccc21 [Compound 116, (R)-(5-(1H-pyrazol-4-yl)isochroman-1-yl)methanamine hydrochloride salt] | – | 3 to 10 | + (LOQ ≤ + <5%) | + (LOQ ≤ + <5%) | ++ (5% ≤ ++ <25%) | + (LOQ ≤ + <5%) | ++++ (50% ≤ ++++) | + (LOQ ≤ + <5%) | ++ (5% ≤ ++ <25%) | + (LOQ ≤ + <5%) | ++ (5% ≤ ++ <25%) |
